According to ChEMBL document CHEMBL1201862, “PubChem BioAssay data set” (2004):
The source made the active and inactive calls.

Columns and labels:
[1] = biological target: T1, RNA-binding protein pos-1 (Caenorhabditis elegans, UniProt G5EF15); test: disruptors of C. elegans POS-1 RNA interaction – biochemical, fluorescence polarization, dose response (AID 1964);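 further: purified POS-1 fused to maltose binding protein made in E. coli; potency of compounds blocking POS-1 binding to fluorescent RNA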
T1 sequence (G5EF15 whole entry): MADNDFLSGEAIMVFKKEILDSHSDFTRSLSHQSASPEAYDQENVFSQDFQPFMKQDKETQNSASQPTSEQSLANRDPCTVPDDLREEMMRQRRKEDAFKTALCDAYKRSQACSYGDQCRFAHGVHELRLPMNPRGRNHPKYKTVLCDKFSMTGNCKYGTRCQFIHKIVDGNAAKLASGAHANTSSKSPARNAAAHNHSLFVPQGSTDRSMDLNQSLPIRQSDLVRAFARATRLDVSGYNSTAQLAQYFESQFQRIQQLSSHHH

Beta Lactamase = Beta Lactamase (Pseudomonas aeruginosa, UniProt Q932Y6); test: BLA reporter interference, concentration series – BLA reporter cells, FRET fluorescence, artefact control for TLR9-MyD88 binding inhibitor project, dose response (AID 588341); type: cell-based;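 further: cell based assay in CHO-K1 cells stably expressing beta-lactamase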
Beta Lactamase, sequence (Q932Y6 whole entry): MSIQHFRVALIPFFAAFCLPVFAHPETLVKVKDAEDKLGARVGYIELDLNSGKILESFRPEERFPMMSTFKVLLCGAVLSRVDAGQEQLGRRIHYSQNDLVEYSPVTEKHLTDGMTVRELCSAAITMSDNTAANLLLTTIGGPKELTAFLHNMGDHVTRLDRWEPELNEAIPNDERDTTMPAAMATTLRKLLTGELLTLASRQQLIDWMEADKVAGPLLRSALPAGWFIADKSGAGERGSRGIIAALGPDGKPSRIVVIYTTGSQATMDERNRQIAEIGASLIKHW

Beta-lactamase [2] = biological target: Beta-lactamase (Pseudomonas aeruginosa, UniProt Q79MP6);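 further: biochemical dose-response test of metallo-beta-lactamase enzyme inhibition, read out by epi-absorbance; purified recombinant IMP-1 metallo-beta-lactamase with nitrocefin as substrate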
Beta-lactamase (Pseudomonas aeruginosa, UniProt Q79MP6), sequence (Q79MP6 whole entry, the tested form may be a part): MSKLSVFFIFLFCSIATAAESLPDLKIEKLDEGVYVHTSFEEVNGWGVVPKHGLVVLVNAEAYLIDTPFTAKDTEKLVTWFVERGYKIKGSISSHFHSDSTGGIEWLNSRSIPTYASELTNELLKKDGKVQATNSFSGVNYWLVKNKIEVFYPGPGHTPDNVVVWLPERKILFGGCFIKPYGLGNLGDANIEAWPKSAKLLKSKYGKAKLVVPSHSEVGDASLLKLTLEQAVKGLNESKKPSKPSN

CHO = CHO cell viability loss, potency – luminescence, cytotoxicity control for TLR9-MyD88 binding inhibitor project, dose response (AID 588339); type: functional, cell-based, hamster; conditions: Cricetulus griseus;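 further: CHO cells stably coexpressing TLR9 and MyD88 fusions from primary screen; compound exposure lasted 48 hours before viability readout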
Beta-lactamase [3] = biological target: Beta-lactamase (Salmonella choleraesuis (strain SC-B67), UniProt Q5J463)
Beta-lactamase (Salmonella choleraesuis (strain SC-B67), UniProt Q5J463), sequence (Q5J463 whole entry): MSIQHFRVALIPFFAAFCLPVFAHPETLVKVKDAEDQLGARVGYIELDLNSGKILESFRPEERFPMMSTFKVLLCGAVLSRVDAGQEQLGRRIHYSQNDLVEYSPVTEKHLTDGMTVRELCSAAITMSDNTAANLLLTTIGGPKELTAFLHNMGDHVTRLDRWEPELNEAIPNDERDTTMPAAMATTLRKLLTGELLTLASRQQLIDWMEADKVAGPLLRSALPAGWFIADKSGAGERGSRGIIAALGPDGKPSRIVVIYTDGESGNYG

[4] = biological target: T2, Zinc finger protein mex-5 (Caenorhabditis elegans, UniProt Q9XUB2); test: potency of MEX-5 RNA-binding blockers – biochemical, C. elegans, fluorescence polarization, dose response (AID 1960)
T2 sequence (Q9XUB2 whole entry): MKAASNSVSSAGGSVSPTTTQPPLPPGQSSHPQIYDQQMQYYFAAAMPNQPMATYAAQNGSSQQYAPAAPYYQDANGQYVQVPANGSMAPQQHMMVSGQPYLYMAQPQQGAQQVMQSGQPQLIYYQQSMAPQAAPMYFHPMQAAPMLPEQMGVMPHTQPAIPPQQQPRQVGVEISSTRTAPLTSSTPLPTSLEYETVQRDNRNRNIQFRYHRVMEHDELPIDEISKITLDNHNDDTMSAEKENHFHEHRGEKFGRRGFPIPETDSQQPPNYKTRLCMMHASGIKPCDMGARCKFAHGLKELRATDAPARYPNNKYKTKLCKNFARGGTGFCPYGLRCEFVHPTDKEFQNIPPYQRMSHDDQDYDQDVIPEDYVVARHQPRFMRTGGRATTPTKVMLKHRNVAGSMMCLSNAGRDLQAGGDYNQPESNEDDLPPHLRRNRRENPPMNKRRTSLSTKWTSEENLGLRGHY

[5] = biological target: T3, High affinity choline transporter 1 (Homo sapiens, UniProt Q9GZV3); test: human choline transporter potentiators, potency – cell-based, 10-point CRC, membrane potential dye, dose response (AID 602376); type: functional
T3 sequence (Q9GZV3 whole entry): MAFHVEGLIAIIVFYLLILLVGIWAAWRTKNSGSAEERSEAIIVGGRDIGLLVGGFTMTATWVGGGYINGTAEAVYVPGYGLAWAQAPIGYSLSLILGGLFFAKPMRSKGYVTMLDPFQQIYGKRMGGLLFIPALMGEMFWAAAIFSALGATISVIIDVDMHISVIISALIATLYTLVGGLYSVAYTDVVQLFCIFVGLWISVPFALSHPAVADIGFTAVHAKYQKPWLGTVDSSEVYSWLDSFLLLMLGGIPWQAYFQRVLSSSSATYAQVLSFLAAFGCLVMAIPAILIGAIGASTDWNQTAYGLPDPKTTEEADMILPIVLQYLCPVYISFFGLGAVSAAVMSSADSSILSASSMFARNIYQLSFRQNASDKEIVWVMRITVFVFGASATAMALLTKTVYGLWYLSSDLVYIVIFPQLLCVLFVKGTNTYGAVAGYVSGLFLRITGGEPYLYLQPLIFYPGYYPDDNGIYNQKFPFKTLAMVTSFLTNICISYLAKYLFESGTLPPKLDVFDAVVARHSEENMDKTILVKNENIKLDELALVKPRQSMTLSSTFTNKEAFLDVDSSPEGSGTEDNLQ

[6] = biological target: Glycogen synthase kinase-3 alpha (Homo sapiens, UniProt P49840); test: Inhibition of Human GSK-3 alpha Activity Measured in Biochemical System Using Microfluidics - 2063-06_Inhibitor_Dose_DryPowder_Activity_Set2. [Related pubchem assays (depositor defined):AID2709]
Glycogen synthase kinase-3 alpha, sequence (P49840 whole entry): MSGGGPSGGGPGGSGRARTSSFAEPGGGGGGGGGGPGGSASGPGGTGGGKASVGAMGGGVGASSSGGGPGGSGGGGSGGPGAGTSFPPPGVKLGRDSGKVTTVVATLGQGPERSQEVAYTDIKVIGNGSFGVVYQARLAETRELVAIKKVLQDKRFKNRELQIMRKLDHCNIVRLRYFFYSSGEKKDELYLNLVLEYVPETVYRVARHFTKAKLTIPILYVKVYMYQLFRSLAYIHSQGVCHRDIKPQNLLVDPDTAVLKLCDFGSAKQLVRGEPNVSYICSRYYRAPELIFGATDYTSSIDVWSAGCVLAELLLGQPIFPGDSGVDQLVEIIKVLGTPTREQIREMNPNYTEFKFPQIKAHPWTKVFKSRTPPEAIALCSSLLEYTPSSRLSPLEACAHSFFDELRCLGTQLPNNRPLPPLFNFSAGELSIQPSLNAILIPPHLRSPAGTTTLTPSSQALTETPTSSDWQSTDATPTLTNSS

[7] = biological target: Glycogen synthase kinase-3 beta (Homo sapiens, UniProt P49841); test: Inhibition of Human GSK-3 beta Activity Measured in Biochemical System Using Microfluidics - 2063-05_Inhibitor_Dose_DryPowder_Activity_Set2. [Related pubchem assays (depositor defined):AID2709]
Glycogen synthase kinase-3 beta, sequence (P49841 whole entry): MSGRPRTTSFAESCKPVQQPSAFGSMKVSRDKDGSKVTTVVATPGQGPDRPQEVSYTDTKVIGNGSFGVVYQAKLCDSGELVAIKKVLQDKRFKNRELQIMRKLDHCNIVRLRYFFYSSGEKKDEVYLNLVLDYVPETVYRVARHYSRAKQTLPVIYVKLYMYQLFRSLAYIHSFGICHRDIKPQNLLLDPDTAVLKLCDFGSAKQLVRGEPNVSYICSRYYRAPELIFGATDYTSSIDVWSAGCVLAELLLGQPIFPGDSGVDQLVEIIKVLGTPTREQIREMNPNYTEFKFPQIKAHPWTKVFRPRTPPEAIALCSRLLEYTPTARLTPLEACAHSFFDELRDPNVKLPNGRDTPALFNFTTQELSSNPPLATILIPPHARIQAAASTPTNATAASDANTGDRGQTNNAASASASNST

[8] = biological target: Cyclin-dependent kinase 5/CDK5 activator 1 (Homo sapiens, UniProt Q00535); test: human CDK5 activity blockade – biochemical, microfluidic mobility shift, dry powder, selectivity assay for GSK-3 alpha inhibitor project, dose response (AID 588430)
Cyclin-dependent kinase 5/CDK5 activator 1, sequence (Q00535 whole entry): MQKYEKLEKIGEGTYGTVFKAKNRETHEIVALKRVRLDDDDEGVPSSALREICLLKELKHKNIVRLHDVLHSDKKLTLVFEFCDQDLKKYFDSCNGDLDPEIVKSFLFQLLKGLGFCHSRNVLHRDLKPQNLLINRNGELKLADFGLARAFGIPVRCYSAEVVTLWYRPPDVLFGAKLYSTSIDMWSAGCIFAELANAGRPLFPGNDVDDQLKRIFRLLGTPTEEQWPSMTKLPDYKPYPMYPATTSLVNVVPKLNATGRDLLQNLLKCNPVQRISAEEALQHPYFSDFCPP
Cyclin-dependent kinase 5/CDK5 activator 1, sequence (Q15078 whole entry, further chain): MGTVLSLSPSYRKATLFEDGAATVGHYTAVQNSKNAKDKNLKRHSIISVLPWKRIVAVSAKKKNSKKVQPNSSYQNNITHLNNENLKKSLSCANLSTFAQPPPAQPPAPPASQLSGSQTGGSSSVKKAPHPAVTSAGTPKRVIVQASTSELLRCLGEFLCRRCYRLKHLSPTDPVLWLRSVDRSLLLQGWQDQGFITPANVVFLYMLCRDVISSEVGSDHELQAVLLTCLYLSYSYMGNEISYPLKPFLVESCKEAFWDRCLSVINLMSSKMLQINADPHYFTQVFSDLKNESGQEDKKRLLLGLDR

[9] = biological target: T4, Sentrin-specific protease 6 (Homo sapiens, UniProt Q9GZR1); test: SAR Analysis of small molecule inhibitors of Sentrin-specific protease 6 (SENP6) using a Luminescent assay. [Related pubchem assays (depositor defined):AID2582, AID2599]; type: functional
T4 sequence (Q9GZR1 whole entry): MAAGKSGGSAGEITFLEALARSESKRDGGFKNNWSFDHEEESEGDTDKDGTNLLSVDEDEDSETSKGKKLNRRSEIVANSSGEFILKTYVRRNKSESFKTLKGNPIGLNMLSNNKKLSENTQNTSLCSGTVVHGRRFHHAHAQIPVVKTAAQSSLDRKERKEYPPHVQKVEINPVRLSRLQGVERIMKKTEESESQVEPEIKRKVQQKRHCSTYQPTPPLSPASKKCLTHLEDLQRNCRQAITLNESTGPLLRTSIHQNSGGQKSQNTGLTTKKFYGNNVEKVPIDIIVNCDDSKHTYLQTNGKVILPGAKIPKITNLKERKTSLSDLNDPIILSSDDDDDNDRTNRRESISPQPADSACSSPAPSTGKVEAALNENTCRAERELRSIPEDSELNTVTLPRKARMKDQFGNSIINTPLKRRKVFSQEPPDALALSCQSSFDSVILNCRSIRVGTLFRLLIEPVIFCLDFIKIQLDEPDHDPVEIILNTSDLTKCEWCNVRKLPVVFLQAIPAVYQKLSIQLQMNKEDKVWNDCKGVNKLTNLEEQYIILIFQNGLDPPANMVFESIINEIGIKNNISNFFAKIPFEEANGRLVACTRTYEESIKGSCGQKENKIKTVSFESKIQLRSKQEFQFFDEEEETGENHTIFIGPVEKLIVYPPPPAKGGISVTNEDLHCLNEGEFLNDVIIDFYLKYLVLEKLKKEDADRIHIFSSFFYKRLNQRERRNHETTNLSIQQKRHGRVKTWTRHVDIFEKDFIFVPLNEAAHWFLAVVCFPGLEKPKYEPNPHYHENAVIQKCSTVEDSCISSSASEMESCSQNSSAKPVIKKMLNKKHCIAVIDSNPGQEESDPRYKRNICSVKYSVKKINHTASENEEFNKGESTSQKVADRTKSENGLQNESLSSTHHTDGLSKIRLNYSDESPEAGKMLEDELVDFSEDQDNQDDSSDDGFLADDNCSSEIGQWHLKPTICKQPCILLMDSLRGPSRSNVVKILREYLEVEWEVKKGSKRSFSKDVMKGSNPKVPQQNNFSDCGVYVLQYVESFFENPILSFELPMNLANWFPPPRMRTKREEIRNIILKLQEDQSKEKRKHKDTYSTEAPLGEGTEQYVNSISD

[10] = biological target: T5, Sentrin-specific protease 7 (Homo sapiens, UniProt Q9BQF6); test: inhibition of human SENP7 cleavage activity – biochemical, luminescence, SAR follow-up (AID 504497); type: functional
T5 sequence (Q9BQF6 whole entry): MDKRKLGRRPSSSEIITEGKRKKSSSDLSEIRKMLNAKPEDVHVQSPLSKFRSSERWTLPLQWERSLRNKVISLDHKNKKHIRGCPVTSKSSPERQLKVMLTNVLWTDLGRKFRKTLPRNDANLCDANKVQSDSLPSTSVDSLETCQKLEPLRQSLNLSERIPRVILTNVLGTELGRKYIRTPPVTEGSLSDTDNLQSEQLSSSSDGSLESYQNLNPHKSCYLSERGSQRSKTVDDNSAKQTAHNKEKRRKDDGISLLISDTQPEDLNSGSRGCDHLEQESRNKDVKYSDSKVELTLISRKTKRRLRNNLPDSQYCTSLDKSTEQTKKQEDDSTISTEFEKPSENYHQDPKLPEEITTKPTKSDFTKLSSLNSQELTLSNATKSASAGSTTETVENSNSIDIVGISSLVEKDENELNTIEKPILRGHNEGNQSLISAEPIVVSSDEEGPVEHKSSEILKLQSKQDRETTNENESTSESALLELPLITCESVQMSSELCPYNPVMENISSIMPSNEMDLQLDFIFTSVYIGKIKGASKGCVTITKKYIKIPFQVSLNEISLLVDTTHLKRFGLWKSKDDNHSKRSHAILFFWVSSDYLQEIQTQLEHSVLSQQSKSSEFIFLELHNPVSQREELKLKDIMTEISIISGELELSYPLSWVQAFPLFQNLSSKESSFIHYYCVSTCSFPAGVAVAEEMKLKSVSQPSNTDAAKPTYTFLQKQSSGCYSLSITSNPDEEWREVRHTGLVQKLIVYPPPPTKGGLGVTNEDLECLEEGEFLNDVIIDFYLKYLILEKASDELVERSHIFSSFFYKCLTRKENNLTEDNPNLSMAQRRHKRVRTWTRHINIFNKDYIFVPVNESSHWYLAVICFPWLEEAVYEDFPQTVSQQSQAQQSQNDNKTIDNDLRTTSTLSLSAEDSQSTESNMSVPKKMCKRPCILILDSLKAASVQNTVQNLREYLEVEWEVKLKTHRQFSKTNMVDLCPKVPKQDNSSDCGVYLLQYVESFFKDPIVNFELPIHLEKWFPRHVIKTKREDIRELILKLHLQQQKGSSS

[11] = biological target: T4, Sentrin-specific protease 6; test: inhibition of human SENP6 catalytic domain – biochemical, luminescence, set 2, SAR follow-up (AID 588598); type: functional
Caspase-3 [12] = biological target: T6, Caspase-3 (Homo sapiens, UniProt P42574); test: inhibition of recombinant caspase-3 activity – biochemical, luminescence, set 2, selectivity assay for SENP protease inhibitor project, SAR follow-up (AID 588599); type: functional
T6 sequence (P42574 whole entry): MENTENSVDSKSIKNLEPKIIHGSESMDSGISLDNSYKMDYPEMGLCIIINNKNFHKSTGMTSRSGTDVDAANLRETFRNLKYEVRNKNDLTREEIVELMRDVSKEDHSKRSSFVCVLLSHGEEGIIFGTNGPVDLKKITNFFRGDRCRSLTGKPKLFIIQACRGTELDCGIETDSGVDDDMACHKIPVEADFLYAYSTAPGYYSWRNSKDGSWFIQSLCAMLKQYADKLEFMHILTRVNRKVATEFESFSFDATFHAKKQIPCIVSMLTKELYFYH

[13] = biological target: T5, Sentrin-specific protease 7; test: inhibition of human SENP7 cleavage activity – biochemical, luminescence, set 2, SAR follow-up (AID 588600); type: functional
[14] = biological target: T7, Sentrin-specific protease 8 (Homo sapiens, UniProt Q96LD8); test: inhibition of sentrin protease 8 – biochemical, luminescence, set 2, SAR follow-up (AID 588601); type: functional
T7 sequence (Q96LD8 whole entry): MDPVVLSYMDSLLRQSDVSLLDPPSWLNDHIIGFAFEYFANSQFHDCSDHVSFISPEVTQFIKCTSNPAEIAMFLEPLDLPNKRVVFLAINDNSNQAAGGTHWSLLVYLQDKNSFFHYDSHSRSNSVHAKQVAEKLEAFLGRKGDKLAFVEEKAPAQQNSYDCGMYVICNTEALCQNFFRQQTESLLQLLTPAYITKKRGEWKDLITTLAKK

Caspase-3 [15] = biological target: T6, Caspase-3; test: SAR Analysis of small molecule inhibitors of Sentrin-specific proteases (SENPs) using a Caspase-3 Selectivity assay. [Related pubchem assays (depositor defined):AID2540, AID2599, AID434973, AID489001]; type: functional
[16] = biological target: T7, Sentrin-specific protease 8; test: inhibition of human SENP8 cleavage activity – biochemical, luminescence, SAR follow-up (AID 504501); type: functional

CCN(CC)c1ccc(/C=C/C(=O)c2ccc(Br)cc2)cc1
EC50 [1]: 13.8 µM (inconclusive)
IC50 (Beta Lactamase): 3.82 µM (active)
IC50 (Beta-lactamase [2]): 11 µM (inactive)
IC50 (CHO): > 49.7 µM (inactive)
IC50 (Beta-lactamase [3]): 3.09 µM (active)
EC50 [4]: 13.5 µM (inconclusive)

CN(Cc1ccc(F)cc1)C(=O)c1sccc1-c1ccccc1
EC50 [5]: 18.2 µM (active)

O=C(CN1C(=O)CCC1=O)Nc1cccc2c1C(=O)NC2=O
AC50 [6]: 0.459 µM (active)
AC50 [7]: 0.261 µM (active)
AC50 [8]: 20.2 µM (active)

CCCCc1ccc2nc(NC(=O)c3ccco3)sc2c1
IC50 [9]: 1.8 µM (active)
IC50 [10]: 1.6 µM (active)
IC50 [11]: 2.89 µM (active)
IC50 (Caspase-3 [12]): 3.36 µM (active)
IC50 [13]: 3.3 µM (active)
IC50 [14]: 2.95 µM (active)
IC50 (Caspase-3 [15]): 4 µM (active)
IC50 [16]: 2 µM (active)
